Measured values: PubChem BioAssay AID1259407 (Chemical Carcinogenesis Research Information System (CCRIS), 2018)
Activity calls are given as the source filed them. How the calls were made is not given here.

System: CCRIS mutagenicity, Ames/micronucleus/aberration tests
Test: CCRIS mutagenicity studies
[1] = Test System: AMES SALMONELLA TYPHIMURIUM, Strain/Indicator: TA98, Metabolic Activation: NONE, Method: STANDARD PLATE
[2] = Test System: AMES SALMONELLA TYPHIMURIUM, Strain/Indicator: TA100, Metabolic Activation: NONE, Method: STANDARD PLATE

With `Cc1c2ccccc2cc2ccc3ccccc3c12` the mutagenic call (Test System: AMES SALMONELLA TYPHIMURIUM, Strain/Indicator: TA98, Method: STANDARD PLATE) was “active; positive”, the mutagenic call (Test System: AMES SALMONELLA TYPHIMURIUM, Strain/Indicator: TA100, Metabolic Activation: RAT, INTACT HEPATOCYTES, AROCLOR 1254, Method: PREINCUBATION) was “active; positive” and the mutagenic call (Test System: AMES SALMONELLA TYPHIMURIUM, Strain/Indicator: TA100, Metabolic Activation: RAT, LIVER, S-9, PHENOBARBITAL, Method: STANDARD PLATE) was “active; positive”. For the same compound, the mutagenic call (Test System: AMES SALMONELLA TYPHIMURIUM, Strain/Indicator: TA100, Metabolic Activation: RAT, NADPH-FORTIFIED HOMOGENIZED HEPATOCYTES, AROCLOR 1254, Method: PREINCUBATION) was “active; positive”, the mutagenic call (Test System: AMES SALMONELLA TYPHIMURIUM, Strain/Indicator: TA100, Metabolic Activation: RAT, SONICATED HEPATOCYTES, AROCLOR 1254, Method: PREINCUBATION) was “active; positive” and the mutagenic call (Test System: AMES SALMONELLA TYPHIMURIUM, Strain/Indicator: TA100, Method: STANDARD PLATE) was “active; positive”.

In the case of `C[C@]12O[C@H]1[C@H]1CCCC[C@@H]1c1ccccc12`, the mutagenic call [1] is reported as “inactive; negative” and the mutagenic call [2] is reported as “inactive; negative”.

`Cc1cc(N)cc(C)c1N` was tested, and the mutagenic call [1] was “inactive; negative”, the mutagenic call (Test System: AMES SALMONELLA TYPHIMURIUM, Strain/Indicator: TA98, Metabolic Activation: RAT, LIVER, S-9, AROCLOR 1254, Method: STANDARD PLATE) was “inactive; negative” and the mutagenic call [2] was “inactive; negative”. The mutagenic call (Test System: AMES SALMONELLA TYPHIMURIUM, Strain/Indicator: TA100, Metabolic Activation: RAT, LIVER, S-9, AROCLOR 1254, Method: STANDARD PLATE) was “inactive; negative”, the mutagenic call (Test System: AMES SALMONELLA TYPHIMURIUM, Strain/Indicator: TA1535, Metabolic Activation: NONE, Method: STANDARD PLATE) was “inactive; negative” and the mutagenic call (Test System: AMES SALMONELLA TYPHIMURIUM, Strain/Indicator: TA1535, Metabolic Activation: RAT, LIVER, S-9, AROCLOR 1254, Method: STANDARD PLATE) was “inactive; negative”. The mutagenic call (Test System: AMES SALMONELLA TYPHIMURIUM, Strain/Indicator: TA1537, Metabolic Activation: NONE, Method: STANDARD PLATE) was “inactive; negative”, the mutagenic call (Test System: AMES SALMONELLA TYPHIMURIUM, Strain/Indicator: TA1537, Metabolic Activation: RAT, LIVER, S-9, AROCLOR 1254, Method: STANDARD PLATE) was “inactive; negative” and the mutagenic call (Test System: AMES SALMONELLA TYPHIMURIUM, Strain/Indicator: TA1538, Metabolic Activation: NONE, Method: STANDARD PLATE) was “inactive; negative”. The mutagenic call (Test System: AMES SALMONELLA TYPHIMURIUM, Strain/Indicator: TA1538, Metabolic Activation: RAT, LIVER, S-9, AROCLOR 1254, Method: STANDARD PLATE) was “inactive; negative”.

For `O/N=C/c1ccncc1`, the mutagenic call (Test System: AMES SALMONELLA TYPHIMURIUM, Strain/Indicator: TA102, Metabolic Activation: RAT, LIVER, S-9, PHENOBARBITAL AND 5,6-BENZOFLAVONE, Method: STANDARD PLATE) was “inactive; negative”, the mutagenic call (Test System: AMES SALMONELLA TYPHIMURIUM, Strain/Indicator: TA2638, Metabolic Activation: RAT, LIVER, S-9, PHENOBARBITAL AND 5,6-BENZOFLAVONE, Method: STANDARD PLATE) was “inactive; negative” and the mutagenic call (Test System: E. COLI, Strain/Indicator: WP2 (PKM101), Metabolic Activation: RAT, LIVER, S-9, PHENOBARBITAL AND 5,6-BENZOFLAVONE, Method: STANDARD PLATE) was “inactive; negative”. For the same compound, the mutagenic call (Test System: E. COLI, Strain/Indicator: WP2 UVRA (PKM101), Metabolic Activation: RAT, LIVER, S-9, PHENOBARBITAL AND 5,6-BENZOFLAVONE, Method: STANDARD PLATE) was “active; positive”.
